Results as given in ChEMBL document CHEMBL1124129, “Binding of steroids to the progestin and glucocorticoid receptors analyzed by correspondence analysis” (J Med Chem, 1988).

Target: T1, Glucocorticoid receptor (Rattus norvegicus) (UniProt P06536)
T1 sequence (whole entry): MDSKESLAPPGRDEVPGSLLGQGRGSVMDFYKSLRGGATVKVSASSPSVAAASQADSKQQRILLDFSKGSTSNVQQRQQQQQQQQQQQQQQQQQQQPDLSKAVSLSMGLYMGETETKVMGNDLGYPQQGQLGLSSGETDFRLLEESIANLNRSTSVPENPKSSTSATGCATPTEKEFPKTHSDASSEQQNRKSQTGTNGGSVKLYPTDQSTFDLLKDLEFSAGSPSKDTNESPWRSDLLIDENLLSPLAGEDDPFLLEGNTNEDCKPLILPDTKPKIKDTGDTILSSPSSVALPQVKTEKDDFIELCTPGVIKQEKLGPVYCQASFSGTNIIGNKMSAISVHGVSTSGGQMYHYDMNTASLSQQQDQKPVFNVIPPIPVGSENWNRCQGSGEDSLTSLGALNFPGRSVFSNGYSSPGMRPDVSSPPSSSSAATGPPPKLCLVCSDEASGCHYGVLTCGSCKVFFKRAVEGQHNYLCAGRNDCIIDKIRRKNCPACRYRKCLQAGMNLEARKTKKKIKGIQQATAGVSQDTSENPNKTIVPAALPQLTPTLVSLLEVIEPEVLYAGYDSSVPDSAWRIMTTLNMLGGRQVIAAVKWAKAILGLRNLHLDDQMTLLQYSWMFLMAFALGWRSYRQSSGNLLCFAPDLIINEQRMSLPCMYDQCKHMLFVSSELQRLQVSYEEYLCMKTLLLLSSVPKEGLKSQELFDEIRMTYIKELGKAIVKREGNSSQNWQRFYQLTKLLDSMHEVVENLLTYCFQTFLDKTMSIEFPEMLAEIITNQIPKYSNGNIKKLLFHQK
Assay: Relative binding affinity to glucocorticoid receptor on cytosol fromt hymus at 4 hr

In the case of `CC#C[C@]1(O)CCC2C3CCC4=CC(=O)CCC4=C3C(c3cccs3)CC21C` (stereo partly specified), the RBA is reported as 270.
